In publication PMC10279640 (Nature Communications, 2023):
Square brackets hold non-standard residues; d marks the D form. Peptide text beside a SMILES is read from it. sY = N[C@@H](Cc1ccc(OS(=O)(=O)O)cc1)C(=O)O

Legend:
[1] = molecular target: PvDBP-RII (Plasmodium vivax, UniProt P22290, S353A/T257A/T422A); assay: biochemical; format: binding
[2] = test system: P. knowlesi PvDBP^OR/PkDBPβγ^KO; settings: PvDBP-expressing P. knowlesi, at the concentrations tested
[3] = test system: P. knowlesi wild-type A1-H.1

Compound | Kd [1] | growth inhibition (in words) [2] | growth inhibition (in words) [3]
CC(=O)N[C@@H](CCC(N)=O)C(=O)N[C@@H](CC(C)C)C(=O)N[C@@H](CC(=O)O)C(=O)N[C@@H](Cc1ccccc1)C(=O)N[C@@H](CCC(=O)O)C(=O)N[C@@H](CC(=O)O)C(=O)N[C@H](C(=O)N[C@@H](Cc1c[nH]c2ccccc12)C(=O)N[C@@H](CC(N)=O)C(=O)N[C@@H](CO)C(=O)N[C@@H](CO)C(=O)N[C@@H](Cc1ccc(OS(=O)(=O)O)cc1)C(=O)NCC(=O)N[C@H](C(=O)N[C@@H](CC(N)=O)C(=O)N[C@@H](CC(=O)O)C(=O)N[C@@H](CO)C(=O)N[C@@H](Cc1ccccc1)C(=O)N1CCC[C@H]1C(=O)N[C@@H](CC(=O)O)C(=O)NCC(=O)N[C@@H](CC(=O)O)C(=O)N[C@@H](Cc1ccc(O)cc1)C(=O)N[C@@H](CC(=O)O)C(=O)N[C@@H](C)C(=O)N[C@@H](CC(N)=O)C(=O)N[C@@H](CC(C)C)C(=O)N[C@@H](CCC(=O)O)C(=O)N[C@@H](CC(C)C)C(N)=O)C(C)C)C(C)C [Y30-S] (Ac-QLDFEDVWNSS[sY]GVNDSFPDGDYDANLEL-NH2) | 0.552 µM | – | –
Ac-QLDFEDVWNSSYGVNDSFPDGDYDANLEL-NH2 [non-sulfated] | – | no growth inhibition observed | no inhibition observed
